In PubChem BioAssay AID1259407 (Chemical Carcinogenesis Research Information System (CCRIS), 2018):
Active and inactive are the calls of the source. No rule for the calls is given here.

Test system: CCRIS mutagenicity, Ames/micronucleus/aberration tests
Assay: CCRIS mutagenicity studies

Cc1ccc(N)cc1
mutagenic call (Test System: AMES SALMONELLA TYPHIMURIUM, Strain/Indicator: TA97, Metabolic Activation: HAMSTER, LIVER, S-9, AROCLOR 1254 (10%), Method: PREINCUBATION): inactive; negative | mutagenic call (Test System: AMES SALMONELLA TYPHIMURIUM, Strain/Indicator: TA97, Metabolic Activation: HAMSTER, LIVER, S-9, AROCLOR 1254 (30%), Method: PREINCUBATION): inactive; negative | mutagenic call (Test System: AMES SALMONELLA TYPHIMURIUM, Strain/Indicator: TA97, Metabolic Activation: NONE, Method: PREINCUBATION): inactive; negative | mutagenic call (Test System: AMES SALMONELLA TYPHIMURIUM, Strain/Indicator: TA97, Metabolic Activation: RAT, LIVER, S-9, AROCLOR 1254 (10%), Method: PREINCUBATION): inactive; negative | mutagenic call (Test System: AMES SALMONELLA TYPHIMURIUM, Strain/Indicator: TA97, Metabolic Activation: RAT, LIVER, S-9, AROCLOR 1254 (30%), Method: PREINCUBATION): inactive; negative | mutagenic call (Test System: AMES SALMONELLA TYPHIMURIUM, Strain/Indicator: TA98, Metabolic Activation: HAMSTER, LIVER, S-9, AROCLOR 1254 (10%), Method: PREINCUBATION): inactive; negative | mutagenic call (Test System: AMES SALMONELLA TYPHIMURIUM, Strain/Indicator: TA98, Metabolic Activation: HAMSTER, LIVER, S-9, AROCLOR 1254 (30%), Method: PREINCUBATION): inactive; negative | mutagenic call (Test System: AMES SALMONELLA TYPHIMURIUM, Strain/Indicator: TA98, Metabolic Activation: HAMSTER, LIVER, S-9, SODIUM PHENOBARBITAL AND 5,6-BENZOFLAVONE, Method: PREINCUBATION): inactive; negative | mutagenic call (Test System: AMES SALMONELLA TYPHIMURIUM, Strain/Indicator: TA98, Metabolic Activation: NONE, Method: PREINCUBATION): inactive; negative | mutagenic call (Test System: AMES SALMONELLA TYPHIMURIUM, Strain/Indicator: TA98, Metabolic Activation: RAT LIVER S-9, PHENOBARBITAL AND BETA-NAPHTHOFLAVONE, Method: PREINCUBATION): inactive; negative | mutagenic call (Test System: AMES SALMONELLA TYPHIMURIUM, Strain/Indicator: TA98, Metabolic Activation: RAT, LIVER, S-9, AROCLOR 1254 (10%), Method: PREINCUBATION): inactive; negative | mutagenic call (Test System: AMES SALMONELLA TYPHIMURIUM, Strain/Indicator: TA98, Metabolic Activation: RAT, LIVER, S-9, AROCLOR 1254 (30%), Method: PREINCUBATION): inactive; negative | mutagenic call (Test System: AMES SALMONELLA TYPHIMURIUM, Strain/Indicator: TA100, Metabolic Activation: HAMSTER, LIVER, S-9, AROCLOR 1254 (10%), Method: PREINCUBATION): inactive; negative | mutagenic call (Test System: AMES SALMONELLA TYPHIMURIUM, Strain/Indicator: TA100, Metabolic Activation: HAMSTER, LIVER, S-9, AROCLOR 1254 (30%), Method: PREINCUBATION): active; positive | mutagenic call (Test System: AMES SALMONELLA TYPHIMURIUM, Strain/Indicator: TA100, Metabolic Activation: HAMSTER, LIVER, S-9, SODIUM PHENOBARBITAL AND 5,6-BENZOFLAVONE, Method: PREINCUBATION): inactive; negative | mutagenic call (Test System: AMES SALMONELLA TYPHIMURIUM, Strain/Indicator: TA100, Metabolic Activation: NONE, Method: PREINCUBATION): inactive; negative | mutagenic call (Test System: AMES SALMONELLA TYPHIMURIUM, Strain/Indicator: TA100, Metabolic Activation: RAT LIVER S-9, PHENOBARBITAL AND BETA-NAPHTHOFLAVONE, Method: PREINCUBATION): inactive; negative | mutagenic call (Test System: AMES SALMONELLA TYPHIMURIUM, Strain/Indicator: TA100, Metabolic Activation: RAT, LIVER, S-9, AROCLOR 1254 (10%), Method: PREINCUBATION): inactive; negative | mutagenic call (Test System: AMES SALMONELLA TYPHIMURIUM, Strain/Indicator: TA100, Metabolic Activation: RAT, LIVER, S-9, AROCLOR 1254 (30%), Method: PREINCUBATION): inactive; negative | mutagenic call (Test System: AMES SALMONELLA TYPHIMURIUM, Strain/Indicator: TA102, Metabolic Activation: HAMSTER, LIVER, S-9, SODIUM PHENOBARBITAL AND 5,6-BENZOFLAVONE, Method: PREINCUBATION): inactive; negative | mutagenic call (Test System: AMES SALMONELLA TYPHIMURIUM, Strain/Indicator: TA102, Metabolic Activation: NONE, Method: PREINCUBATION): inactive; negative | mutagenic call (Test System: AMES SALMONELLA TYPHIMURIUM, Strain/Indicator: TA104, Metabolic Activation: HAMSTER, LIVER, S-9, SODIUM PHENOBARBITAL AND 5,6-BENZOFLAVONE, Method: PREINCUBATION): inactive; negative | mutagenic call (Test System: AMES SALMONELLA TYPHIMURIUM, Strain/Indicator: TA104, Metabolic Activation: NONE, Method: PREINCUBATION): inactive; negative | mutagenic call (Test System: AMES SALMONELLA TYPHIMURIUM, Strain/Indicator: TA1535, Metabolic Activation: HAMSTER, LIVER, S-9, AROCLOR 1254 (10%), Method: PREINCUBATION): inactive; negative | mutagenic call (Test System: AMES SALMONELLA TYPHIMURIUM, Strain/Indicator: TA1535, Metabolic Activation: HAMSTER, LIVER, S-9, AROCLOR 1254 (30%), Method: PREINCUBATION): inactive; negative | mutagenic call (Test System: AMES SALMONELLA TYPHIMURIUM, Strain/Indicator: TA1535, Metabolic Activation: HAMSTER, LIVER, S-9, SODIUM PHENOBARBITAL AND 5,6-BENZOFLAVONE, Method: PREINCUBATION): inactive; negative | mutagenic call (Test System: AMES SALMONELLA TYPHIMURIUM, Strain/Indicator: TA1535, Metabolic Activation: NONE, Method: PREINCUBATION): inactive; negative | mutagenic call (Test System: AMES SALMONELLA TYPHIMURIUM, Strain/Indicator: TA1535, Metabolic Activation: RAT LIVER S-9, PHENOBARBITAL AND BETA-NAPHTHOFLAVONE, Method: PREINCUBATION): inactive; negative | mutagenic call (Test System: AMES SALMONELLA TYPHIMURIUM, Strain/Indicator: TA1535, Metabolic Activation: RAT, LIVER, S-9, AROCLOR 1254 (10%), Method: PREINCUBATION): inactive; negative | mutagenic call (Test System: AMES SALMONELLA TYPHIMURIUM, Strain/Indicator: TA1535, Metabolic Activation: RAT, LIVER, S-9, AROCLOR 1254 (30%), Method: PREINCUBATION): inactive; negative | mutagenic call (Test System: AMES SALMONELLA TYPHIMURIUM, Strain/Indicator: TA1537, Metabolic Activation: HAMSTER, LIVER, S-9, SODIUM PHENOBARBITAL AND 5,6-BENZOFLAVONE, Method: PREINCUBATION): inactive; negative | mutagenic call (Test System: AMES SALMONELLA TYPHIMURIUM, Strain/Indicator: TA1537, Metabolic Activation: NONE, Method: PREINCUBATION): inactive; negative | mutagenic call (Test System: AMES SALMONELLA TYPHIMURIUM, Strain/Indicator: TA1537, Metabolic Activation: RAT LIVER S-9, PHENOBARBITAL AND BETA-NAPHTHOFLAVONE, Method: PREINCUBATION): inactive; negative | mutagenic call (Test System: E. COLI, Strain/Indicator: WP2UVRA/PKM101, Metabolic Activation: HAMSTER, LIVER, S-9, SODIUM PHENOBARBITAL AND 5,6-BENZOFLAVONE, Method: PREINCUBATION): inactive; negative | mutagenic call (Test System: E. COLI, Strain/Indicator: WP2UVRA/PKM101, Metabolic Activation: NONE, Method: PREINCUBATION): inactive; negative | mutagenic call (Test System: E. COLI, Strain/Indicator: WP2UVRA, Metabolic Activation: HAMSTER, LIVER, S-9, SODIUM PHENOBARBITAL AND 5,6-BENZOFLAVONE, Method: PREINCUBATION): inactive; negative | mutagenic call (Test System: E. COLI, Strain/Indicator: WP2 UVRA, Metabolic Activation: NONE, Method: FLUCTUATION TEST): inactive; negative | mutagenic call (Test System: E. COLI, Strain/Indicator: WP2UVRA, Metabolic Activation: NONE, Method: PREINCUBATION): inactive; negative | mutagenic call (Test System: E.COLI, Strain/Indicator: WP2UVRA, Metabolic Activation: NONE, Method: PREINCUBATION): inactive; negative | mutagenic call (Test System: E.COLI, Strain/Indicator: WP2UVRA, Metabolic Activation: RAT LIVER S-9, PHENOBARBITAL AND BETA-NAPHTHOFLAVONE, Method: PREINCUBATION): inactive; negative

COC(=O)c1cc2c([nH]c3ccc([N+](=O)[O-])cc32)c(-c2ccccc2)n1
mutagenic call (Test System: AMES SALMONELLA TYPHIMURIUM, Strain/Indicator: TA98(NR), Metabolic Activation: NONE, Method: STANDARD PLATE): inactive; negative | mutagenic call (Test System: AMES SALMONELLA TYPHIMURIUM, Strain/Indicator: TA98(NR), Metabolic Activation: RAT, LIVER, S-9, AROCLOR 1254, Method: STANDARD PLATE): active; positive
